Source: patent US20250295657A1, “Methods and Compositions for Treatment of Inflammation and Inflammatory Conditions” (University of Pittsburgh - Of the Commonwealth System of …, priority 2022, published 2025)

Test system: pseudotyped SARS-CoV-2 (D614G Spike)
Assay type: cell-based

O=C(OCc1cc(=O)oc2cc(O)c(O)cc12)c1nn(-c2ccccc2)c(=O)c2ccccc12 [compound 958]
pseudotyped SARS-CoV-2 infection (D614G Spike): prevent pseudotyped SARS-CoV-2 infection
